In patent publication US20230118152A1, “FORMS OF 5-({[2-AMINO-3-(4-CARBAMOYL-2,6-DIMETHYL-PHENYL)-PROPIONYL]-[1-(4-PHENYL-1H-IMIDAZOL-2-YL)-ETHYL]-AMINO}-METHYL)-2-METHOXY-BENZOIC ACID” (Allergan Holdings Unlimited Company, priority 2020, published 2023):

Assay: Slurry experiments in water (physical form stability)
Type: physicochemical
Protocol: Form H3 may be formed by slurrying Form A in water. Form H3 may convert back to Form A with some minor amorphous contents within some time, and completely convert to amorphous phase upon further slurrying within further time.
Form H3 was prepared by slurry of Form A in water upon stirring. Form H3 converted back to Form A with some minor amorphous content within 2 days, and completely converted to amorphous phase upon slurry within 8 days. After additional 7 days (i.e. day 15 of slurry experiments), the amorphous phase converted further to Form D (tetrahydrate) with high crystallinity.

| Structure (SMILES) | solid form conversion when suspended in water (suspended in water, trihydrate form (H3) and tetrahydrate (Form D)) | time for complete conversion to amorphous phase (slurry in water upon stirring) [days] | time for conversion back to Form A with some minor amorphous content (slurry in water upon stirring) [days] |
| --- | --- | --- | --- |
| COc1ccc(CN(C(=O)C(N)Cc2c(C)cc(C(N)=O)cc2C)C(C)c2nc(-c3ccccc3)c[nH]2)cc1C(=O)O (stereo not drawn) [Form A, 5-({[2-Amino-3-(4-carbamoyl-2,6-dimethyl-phenyl)-propionyl]-[1-(4-phenyl-1H-imidazol-2-yl)-ethyl]-amino}-methyl)-2-methoxy-benzoic acid] | converts to hydrated crystalline forms | – | – |
| COc1ccc(CN(C(=O)C(N)Cc2c(C)cc(C(N)=O)cc2C)C(C)c2nc(-c3ccccc3)c[nH]2)cc1C(=O)O (stereo not drawn) [Form H3, 5-({[2-amino-3-(4-carbamoyl-2,6-dimethyl-phenyl)-propionyl]-[1-(4-phenyl-1H-imidazol-2-yl)-ethyl]-amino}-methyl)-2-methoxy-benzoic acid] | – | ≤ 8 | ≤ 2 |
